Experiments:
JAK2 = molecular target: T1, JAK2 (Homo sapiens, UniProt O60674); experiment: Biochemical JAK2 kinase assay (LanthaScreen); conditions: for Ki: read-out: JAK 2 (pKi) (converted)
T1 construct: GST; purchased Life Technologies
Procedure, shortened: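 GST-tagged recombinant JAK2 pre-incubated 1 h at ambient temperature with compound and GFP-STAT1 peptide in HEPES pH 7.5/MgCl2 buffer, then ATP added for a 1 h reaction with 1% DMSO. TR-FRET read after EDTA and Tb-anti-pSTAT1 (pTyr701) addition; IC50 from 4-parameter fit, converted to pKi by Cheng-Prusoff.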

Tyk2 = molecular target: T2, Tyk2 (Homo sapiens, UniProt P29597); experiment: Biochemical Tyk2 kinase assay (LanthaScreen); conditions: for Ki: read-out: Tyk 2 (pKi) (converted)
T2 construct: GST; purchased Life Technologies
Procedure, shortened: (§1)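 Values are pKi, calculated by Cheng-Prusoff from IC50 obtained by robust 4-parameter fitting of percent inhibition. The kinase reaction used GFP-STAT1 peptide in HEPES pH 7.5 buffer with MgCl2, EGTA and Brij-35, ATP-initiated after compound pre-incubation, 1 h at ambient temperature.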

JAK3 = molecular target: T3, JAK3 (Homo sapiens, UniProt P52333); experiment: Biochemical JAK3 kinase assay (LanthaScreen); set-up: GST; purchased Life Technologies; conditions: for Ki: read-out: JAK 3 (pKi) (converted); for JAK3 (pKi)-JAK1 (pKi): selectivity: difference of pKi JAK3 and pKi JAK1
T3 sequence (P52333 1-1124): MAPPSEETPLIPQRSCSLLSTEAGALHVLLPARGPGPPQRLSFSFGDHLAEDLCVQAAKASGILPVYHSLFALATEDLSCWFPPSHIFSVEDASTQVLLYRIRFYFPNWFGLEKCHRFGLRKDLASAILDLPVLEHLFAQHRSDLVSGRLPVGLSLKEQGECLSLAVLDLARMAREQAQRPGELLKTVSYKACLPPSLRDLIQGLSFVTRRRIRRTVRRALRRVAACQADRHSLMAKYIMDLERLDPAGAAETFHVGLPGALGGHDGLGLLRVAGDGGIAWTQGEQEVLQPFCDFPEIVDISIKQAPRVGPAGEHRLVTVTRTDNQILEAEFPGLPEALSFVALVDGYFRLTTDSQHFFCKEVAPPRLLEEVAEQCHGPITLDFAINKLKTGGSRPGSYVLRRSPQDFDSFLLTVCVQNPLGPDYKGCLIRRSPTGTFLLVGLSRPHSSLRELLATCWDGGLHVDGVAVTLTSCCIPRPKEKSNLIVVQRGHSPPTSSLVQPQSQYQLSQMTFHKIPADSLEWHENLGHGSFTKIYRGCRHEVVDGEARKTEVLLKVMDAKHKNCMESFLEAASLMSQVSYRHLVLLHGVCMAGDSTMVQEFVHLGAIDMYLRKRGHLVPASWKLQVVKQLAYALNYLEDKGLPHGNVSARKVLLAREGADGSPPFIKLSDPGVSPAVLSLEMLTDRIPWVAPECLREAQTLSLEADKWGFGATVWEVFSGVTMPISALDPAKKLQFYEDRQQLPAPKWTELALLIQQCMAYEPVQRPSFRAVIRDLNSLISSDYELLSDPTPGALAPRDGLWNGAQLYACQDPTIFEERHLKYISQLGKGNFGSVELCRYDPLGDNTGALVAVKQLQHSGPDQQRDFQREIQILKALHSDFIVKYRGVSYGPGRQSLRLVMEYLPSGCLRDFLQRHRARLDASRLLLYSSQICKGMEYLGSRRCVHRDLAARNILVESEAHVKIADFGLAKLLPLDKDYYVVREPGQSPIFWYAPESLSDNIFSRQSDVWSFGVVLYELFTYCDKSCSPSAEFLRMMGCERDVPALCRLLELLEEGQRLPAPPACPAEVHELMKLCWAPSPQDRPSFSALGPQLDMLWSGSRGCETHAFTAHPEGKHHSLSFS
Procedure, shortened: as §1

JAK1 = molecular target: T4, JAK1 (Homo sapiens, UniProt P23458); experiment: Biochemical JAK1 kinase assay (LanthaScreen); conditions: for Ki: read-out: JAK 1 (pKi) (converted)
T4 construct: GST; purchased Life Technologies
Procedure, shortened: as §1

[1] = test system: IL-2 stimulated pSTAT5 in Tall-1 T cells; experiment: Cellular JAK3 potency assay: inhibition of IL-2 stimulated pSTAT5 in Tall-1 T cells; assay type: cell-based, human; conditions: for IC50: Homo sapiens, TALL-1, IL-2 stimulated pSTAT5 in Tall-1 T cells, read-out: Tall-1 (pIC50) (converted); for Tall-1 (pIC50): IL-2 stimulated pSTAT5 in Tall-1 T cells
Procedure, shortened: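 In human Tall-1 T cells, IL-2 (300 ng/ml final, 30 min) drives STAT5 phosphorylation after a 1 h compound pretreatment. Lysates are assayed for pSTAT5 by AlphaLisa, and IC50 derived from signal versus concentration is expressed as pIC50.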

T1 sequence (O60674 whole entry): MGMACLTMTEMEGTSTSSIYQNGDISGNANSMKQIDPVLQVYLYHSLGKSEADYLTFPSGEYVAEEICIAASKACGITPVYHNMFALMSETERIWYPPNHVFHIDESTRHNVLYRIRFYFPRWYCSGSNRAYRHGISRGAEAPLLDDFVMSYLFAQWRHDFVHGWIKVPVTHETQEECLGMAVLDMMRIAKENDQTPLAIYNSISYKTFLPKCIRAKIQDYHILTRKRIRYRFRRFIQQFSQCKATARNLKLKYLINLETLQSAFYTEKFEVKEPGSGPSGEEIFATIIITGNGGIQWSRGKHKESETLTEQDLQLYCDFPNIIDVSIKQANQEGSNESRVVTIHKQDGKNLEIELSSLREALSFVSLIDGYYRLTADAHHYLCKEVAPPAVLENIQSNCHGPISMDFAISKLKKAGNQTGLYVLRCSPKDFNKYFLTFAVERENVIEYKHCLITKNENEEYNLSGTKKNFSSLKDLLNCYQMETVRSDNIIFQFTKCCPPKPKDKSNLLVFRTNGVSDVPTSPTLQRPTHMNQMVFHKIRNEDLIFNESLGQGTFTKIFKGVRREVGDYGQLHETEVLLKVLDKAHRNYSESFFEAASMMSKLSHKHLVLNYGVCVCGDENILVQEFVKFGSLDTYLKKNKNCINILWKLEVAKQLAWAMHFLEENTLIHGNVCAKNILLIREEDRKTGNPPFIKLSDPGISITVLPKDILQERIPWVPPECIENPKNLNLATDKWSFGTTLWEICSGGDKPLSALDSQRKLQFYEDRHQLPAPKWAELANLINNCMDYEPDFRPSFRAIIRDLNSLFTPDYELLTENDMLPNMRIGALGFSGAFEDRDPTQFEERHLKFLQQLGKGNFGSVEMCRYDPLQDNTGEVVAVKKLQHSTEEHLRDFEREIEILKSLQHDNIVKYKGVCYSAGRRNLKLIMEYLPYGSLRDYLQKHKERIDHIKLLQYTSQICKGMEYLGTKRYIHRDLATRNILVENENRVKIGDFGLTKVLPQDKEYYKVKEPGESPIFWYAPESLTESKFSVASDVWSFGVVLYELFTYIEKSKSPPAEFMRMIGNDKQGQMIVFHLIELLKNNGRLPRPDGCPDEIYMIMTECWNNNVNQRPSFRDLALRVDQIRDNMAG
T2 sequence (P29597 whole entry): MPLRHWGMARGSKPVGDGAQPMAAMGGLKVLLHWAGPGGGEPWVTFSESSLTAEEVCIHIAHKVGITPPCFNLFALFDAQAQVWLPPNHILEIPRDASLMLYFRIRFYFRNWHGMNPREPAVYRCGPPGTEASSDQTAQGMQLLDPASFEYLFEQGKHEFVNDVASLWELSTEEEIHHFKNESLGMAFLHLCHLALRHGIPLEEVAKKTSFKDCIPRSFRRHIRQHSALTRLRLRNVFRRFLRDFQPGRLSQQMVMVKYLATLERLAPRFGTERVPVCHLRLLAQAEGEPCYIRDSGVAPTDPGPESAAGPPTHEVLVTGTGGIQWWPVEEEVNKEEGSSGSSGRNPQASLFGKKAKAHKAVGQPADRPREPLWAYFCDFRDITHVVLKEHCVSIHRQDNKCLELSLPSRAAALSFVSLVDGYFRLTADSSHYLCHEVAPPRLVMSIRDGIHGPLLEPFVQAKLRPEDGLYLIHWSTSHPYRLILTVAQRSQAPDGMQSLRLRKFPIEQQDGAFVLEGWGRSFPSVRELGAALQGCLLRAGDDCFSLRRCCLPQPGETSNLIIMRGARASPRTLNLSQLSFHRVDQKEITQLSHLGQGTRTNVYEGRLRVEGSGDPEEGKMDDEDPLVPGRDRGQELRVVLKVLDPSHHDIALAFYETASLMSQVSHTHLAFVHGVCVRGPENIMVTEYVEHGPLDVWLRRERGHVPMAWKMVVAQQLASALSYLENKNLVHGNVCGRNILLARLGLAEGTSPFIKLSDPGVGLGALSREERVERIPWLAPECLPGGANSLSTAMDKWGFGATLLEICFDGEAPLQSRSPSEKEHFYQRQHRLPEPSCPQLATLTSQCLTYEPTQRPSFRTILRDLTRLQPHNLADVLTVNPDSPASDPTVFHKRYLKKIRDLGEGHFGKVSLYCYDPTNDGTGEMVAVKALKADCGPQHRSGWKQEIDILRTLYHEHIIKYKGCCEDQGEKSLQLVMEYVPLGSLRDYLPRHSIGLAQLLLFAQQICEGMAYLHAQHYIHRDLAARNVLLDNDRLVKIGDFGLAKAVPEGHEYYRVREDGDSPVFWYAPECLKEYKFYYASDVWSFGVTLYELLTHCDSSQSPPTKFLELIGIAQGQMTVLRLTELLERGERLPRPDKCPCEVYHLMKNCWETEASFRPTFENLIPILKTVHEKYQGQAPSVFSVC
T4 sequence (P23458 whole entry): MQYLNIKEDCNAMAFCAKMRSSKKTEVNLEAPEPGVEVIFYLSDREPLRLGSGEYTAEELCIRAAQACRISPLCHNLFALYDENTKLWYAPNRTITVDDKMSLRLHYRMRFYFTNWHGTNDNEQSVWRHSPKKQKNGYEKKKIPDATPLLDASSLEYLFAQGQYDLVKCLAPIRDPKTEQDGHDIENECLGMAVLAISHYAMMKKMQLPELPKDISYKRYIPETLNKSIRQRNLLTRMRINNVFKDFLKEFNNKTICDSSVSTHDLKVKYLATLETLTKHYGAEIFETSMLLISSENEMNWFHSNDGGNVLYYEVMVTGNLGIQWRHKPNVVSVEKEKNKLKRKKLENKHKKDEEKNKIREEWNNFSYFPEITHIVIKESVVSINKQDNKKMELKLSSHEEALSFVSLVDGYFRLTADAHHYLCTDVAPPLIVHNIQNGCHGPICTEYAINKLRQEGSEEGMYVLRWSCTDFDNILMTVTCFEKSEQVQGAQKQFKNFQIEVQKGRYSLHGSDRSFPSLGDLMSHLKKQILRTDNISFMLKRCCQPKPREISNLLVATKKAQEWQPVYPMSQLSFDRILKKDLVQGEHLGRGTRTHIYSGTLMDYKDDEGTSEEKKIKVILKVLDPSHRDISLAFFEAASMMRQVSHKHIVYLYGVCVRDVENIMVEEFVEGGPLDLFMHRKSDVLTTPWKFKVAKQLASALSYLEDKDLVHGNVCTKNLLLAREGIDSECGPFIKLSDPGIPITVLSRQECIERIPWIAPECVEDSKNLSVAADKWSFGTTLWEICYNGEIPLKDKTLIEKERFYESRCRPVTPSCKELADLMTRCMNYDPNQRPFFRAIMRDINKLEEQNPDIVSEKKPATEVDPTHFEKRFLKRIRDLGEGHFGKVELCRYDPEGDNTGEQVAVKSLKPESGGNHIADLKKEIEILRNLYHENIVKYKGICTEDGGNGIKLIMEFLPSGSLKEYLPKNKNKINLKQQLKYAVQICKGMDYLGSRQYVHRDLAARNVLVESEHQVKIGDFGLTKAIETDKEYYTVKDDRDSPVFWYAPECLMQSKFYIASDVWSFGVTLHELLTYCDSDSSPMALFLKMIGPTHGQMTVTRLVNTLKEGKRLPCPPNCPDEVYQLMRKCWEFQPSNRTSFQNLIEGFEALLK

COC1CN(C/C=C/C(=O)N2CC(COc3cc(-c4ccc(O)cc4)cc4[nH]ncc34)C2)C1 [Compound 3-132] showed a Ki (JAK2) of over 100 nM, a Ki (Tyk2) of over 100 nM and a Ki (JAK3) of 0.1 to 1 nM. For the same molecule, the “JAK3 (pKi)-JAK1 (pKi)” value (JAK3) was “A (a value of 3 or above)”, the Ki (JAK1) was over 100 nM and the IC50 [1] was 200 to 1000 nM.

With COC1(C)CN(C/C=C/C(=O)N2CC(COc3cc(-c4ccc(O)cc4)cc4[nH]ncc34)C2)C1 [Compound 3-133] the Ki (JAK2) was 10 to 100 nM, the Ki (Tyk2) was over 100 nM and the Ki (JAK3) was under 0.1 nM. The “JAK3 (pKi)-JAK1 (pKi)” value (JAK3) was “A (a value of 3 or above)”, the Ki (JAK1) was over 100 nM and the IC50 [1] was 200 to 1000 nM.

C=CC(=O)N1CC(CN(C)c2cc(-c3ccc(O)cc3)cc3[nH]ncc23)C1 [Compound 4-1] was tested, and the “JAK 2 (pKi)” value (JAK2) was “E (a pKi value of 7 or below (Ki of 100 nM or above))”, the “Tyk 2 (pKi)” value (Tyk2) was “E (a pKi value of 7 or below (Ki of 100 nM or above))” and the “JAK 3 (pKi)” value (JAK3) was “B (a pKi value between 9 and 10 (Ki between 1 nM and 0.1 nM))”. The “JAK3 (pKi)-JAK1 (pKi)” value (JAK3) was “A (a value of 3 or above)”, the “JAK 1 (pKi)” value (JAK1) was “E (a pKi value of 7 or below (Ki of 100 nM or above))” and the “Tall-1 (pIC50)” value [1] was “B (a pIC50 value between 6.7 (included) and 7.5 (IC50 between 200 nM and 32 nM))”.

C=CC(=O)N1CC(C)(CNc2cc(-c3ccc(O)cc3)cc3[nH]ncc23)C1 [Compound 4-2] was tested, and the “JAK 2 (pKi)” value (JAK2) was “D (a pKi value between 7 and 8 (Ki between 100 nM and 10 nM))”, the “Tyk 2 (pKi)” value (Tyk2) was “E (a pKi value of 7 or below (Ki of 100 nM or above))” and the “JAK 3 (pKi)” value (JAK3) was “B (a pKi value between 9 and 10 (Ki between 1 nM and 0.1 nM))”. For the same molecule, the “JAK3 (pKi)-JAK1 (pKi)” value (JAK3) was “B (a value of 2.3 to 3)”, the “JAK 1 (pKi)” value (JAK1) was “D (a pKi value between 7 and 8 (Ki between 100 nM and 10 nM))” and the “Tall-1 (pIC50)” value [1] was “B (a pIC50 value between 6.7 (included) and 7.5 (IC50 between 200 nM and 32 nM))”.

CN(C)C/C=C/C(=O)N1CC(CN(C)c2cc(-c3ccc(O)c(Cl)c3)cc3[nH]ncc23)C1 [Compound 4-4] was tested, and the “JAK 2 (pKi)” value (JAK2) was “E (a pKi value of 7 or below (Ki of 100 nM or above))”, the “Tyk 2 (pKi)” value (Tyk2) was “E (a pKi value of 7 or below (Ki of 100 nM or above))” and the “JAK 3 (pKi)” value (JAK3) was “A (a pKi value≥10 (Ki≤0.1 nM))”. The “JAK3 (pKi)-JAK1 (pKi)” value (JAK3) was “A (a value of 3 or above)”, the “JAK 1 (pKi)” value (JAK1) was “E (a pKi value of 7 or below (Ki of 100 nM or above))” and the “Tall-1 (pIC50)” value [1] was “B (a pIC50 value between 6.7 (included) and 7.5 (IC50 between 200 nM and 32 nM))”.

For C=CC(=O)N1CC(CN(C)c2cc(-c3ccc(O)c(Cl)c3)cc3[nH]ncc23)C1 [Compound 4-5], the “JAK 2 (pKi)” value (JAK2) was “E (a pKi value of 7 or below (Ki of 100 nM or above))”, the “Tyk 2 (pKi)” value (Tyk2) was “E (a pKi value of 7 or below (Ki of 100 nM or above))” and the “JAK 3 (pKi)” value (JAK3) was “B (a pKi value between 9 and 10 (Ki between 1 nM and 0.1 nM))”. The “JAK3 (pKi)-JAK1 (pKi)” value (JAK3) was “A (a value of 3 or above)”, the “JAK 1 (pKi)” value (JAK1) was “E (a pKi value of 7 or below (Ki of 100 nM or above))” and the “Tall-1 (pIC50)” value [1] was “A (a pIC50 value≥7.5 (IC50≤32 nM))”.

CN(C)C/C=C/C(=O)N1CC(CN(C)c2cc(-c3ccc(O)c(F)c3)cc3[nH]ncc23)C1 [Compound 4-6] was tested, and the “JAK 2 (pKi)” value (JAK2) was “E (a pKi value of 7 or below (Ki of 100 nM or above))”, the “Tyk 2 (pKi)” value (Tyk2) was “E (a pKi value of 7 or below (Ki of 100 nM or above))” and the “JAK 3 (pKi)” value (JAK3) was “B (a pKi value between 9 and 10 (Ki between 1 nM and 0.1 nM))”. For the same molecule, the “JAK3 (pKi)-JAK1 (pKi)” value (JAK3) was “A (a value of 3 or above)”, the “JAK 1 (pKi)” value (JAK1) was “E (a pKi value of 7 or below (Ki of 100 nM or above))” and the “Tall-1 (pIC50)” value [1] was “B (a pIC50 value between 6.7 (included) and 7.5 (IC50 between 200 nM and 32 nM))”.

C=CC(=O)N1CC(CN(C)c2cc(-c3ccc(O)c(F)c3)cc3[nH]ncc23)C1 [Compound 4-7] was tested, and the “JAK 2 (pKi)” value (JAK2) was “E (a pKi value of 7 or below (Ki of 100 nM or above))”, the “Tyk 2 (pKi)” value (Tyk2) was “E (a pKi value of 7 or below (Ki of 100 nM or above))” and the “JAK 3 (pKi)” value (JAK3) was “C (a pKi value between 8 and 9 (Ki between 10 nM and 1 nM))”. The “JAK3 (pKi)-JAK1 (pKi)” value (JAK3) was “B (a value of 2.3 to 3)”, the “JAK 1 (pKi)” value (JAK1) was “E (a pKi value of 7 or below (Ki of 100 nM or above))” and the “Tall-1 (pIC50)” value [1] was “B (a pIC50 value between 6.7 (included) and 7.5 (IC50 between 200 nM and 32 nM))”.

With C=CC(=O)N1CC(Oc2cc(-c3ccc(O)cc3)cc3[nH]ncc23)C1 [Compound 5-2] the “JAK 2 (pKi)” value (JAK2) was “E (a pKi value of 7 or below (Ki of 100 nM or above))”, the “Tyk 2 (pKi)” value (Tyk2) was “E (a pKi value of 7 or below (Ki of 100 nM or above))” and the “JAK 3 (pKi)” value (JAK3) was “B (a pKi value between 9 and 10 (Ki between 1 nM and 0.1 nM))”. The “JAK3 (pKi)-JAK1 (pKi)” value (JAK3) was “A (a value of 3 or above)”, the “JAK 1 (pKi)” value (JAK1) was “E (a pKi value of 7 or below (Ki of 100 nM or above))” and the “Tall-1 (pIC50)” value [1] was “B (a pIC50 value between 6.7 (included) and 7.5 (IC50 between 200 nM and 32 nM))”.
